These results are taken from ChEMBL document CHEMBL4390694, “Benzofuran-isatin hybrids tethered via different length alkyl linkers and their in vitro anti-mycobacterial activities” (Bioorg Med Chem, 2019).

By MIC is commonly meant the smallest concentration in the dilution series that meets the test's criterion for growth inhibition.

For the assay, the system named is Mycobacterium tuberculosis. Description: Antimycobacterial activity against multidrug-resistant Mycobacterium tuberculosis assessed as complete inhibition of bacterial growth incubated for 7 days by rapid direct susceptibility test. In kind it is functional. To be noted: 168 h.

Values after ≈ are worked out from the molar mass of the structure shown.

Regarding `CCOC(=O)c1c(-c2ccc(F)cc2)oc2ccc(OCCCCCCN3C(=O)C(=O)c4cc(F)ccc43)cc12`, the MIC was 0.25 mg/L (≈ 0.457 µM).

`CCOC(=O)c1c(-c2ccc(OC)cc2)oc2ccc(OCCCN3C(=O)C(=O)c4cc(F)ccc43)cc12`: the MIC stood at 0.25 mg/L (≈ 0.483 µM).

As for `CCOC(=O)c1c(-c2ccc(F)cc2)oc2ccc(OCCCCCN3C(=O)C(=O)c4cc(OC)ccc43)cc12`, the MIC came out at 1 mg/L (≈ 1.83 µM).

In the case of `CCOC(=O)c1c(-c2ccc(OC)cc2)oc2ccc(OCCCCN3C(=O)C(=O)c4ccccc43)cc12`, the MIC is 1 mg/L (≈ 1.95 µM).

As for `CO[C@H]1/C=C/O[C@@]2(C)Oc3c(C)c(O)c4c(O)c(c(/C=N/N5CCN(C)CC5)c(O)c4c3C2=O)NC(=O)/C(C)=C\C=C\[C@H](C)[C@H](O)[C@@H](C)[C@@H](O)[C@@H](C)[C@H](OC(C)=O)[C@@H]1C` [RIFAMPIN], the MIC was found to be 64 mg/L (≈ 77.8 µM).

As for `NNC(=O)c1ccncc1` [ISONIAZID], the MIC was greater than 128 mg/L.

Turning to `CCOC(=O)c1c(-c2ccccc2)oc2ccc(OCCCN3C(=O)C(=O)c4cc(OC)ccc43)cc12`, the MIC was found to be 0.25 mg/L (≈ 0.5 µM).

`CCOC(=O)c1c(-c2ccc(OC)cc2)oc2ccc(OCCCN3C(=O)C(=O)c4ccccc43)cc12`: the MIC was 1 mg/L (≈ 2 µM).

For `CCOC(=O)c1c(-c2ccc(F)cc2)oc2ccc(OCCCN3C(=O)C(=O)c4cc(OC)ccc43)cc12`, the MIC is 2 mg/L (≈ 3.86 µM).

Take `CCOC(=O)c1c(-c2ccc(OC)cc2)oc2ccc(OCCCCCCN3C(=O)C(=O)c4ccccc43)cc12`: the MIC stood at 0.125 mg/L (≈ 0.231 µM).

For the compound `CCOC(=O)c1c(-c2ccc(OC)cc2)oc2ccc(OCCCCCN3C(=O)C(=O)c4cc(F)ccc43)cc12`, the MIC turned out to be 0.25 mg/L (≈ 0.458 µM).

Regarding `CCOC(=O)c1c(-c2ccc(F)cc2)oc2ccc(OCCCN3C(=O)C(=O)c4ccccc43)cc12`, the MIC was determined as 1 mg/L (≈ 2.05 µM).

For `CCOC(=O)c1c(-c2ccc(OC)cc2)oc2ccc(OCCCCCCN3C(=O)C(=O)c4cc(F)ccc43)cc12`, the MIC was determined as 0.125 mg/L (≈ 0.223 µM).

Take `CCOC(=O)c1c(-c2ccc(OC)cc2)oc2ccc(OCCCCN3C(=O)C(=O)c4cc(OC)ccc43)cc12`: the MIC worked out at 4 mg/L (≈ 7.36 µM).

Consider `CNC(=O)c1c(-c2ccc(O)cc2)oc2ccc(O)c(CN3CCCCC3)c12`, for which the MIC is less than 0.06 mg/L.

For the compound `CCOC(=O)c1c(-c2ccc(F)cc2)oc2ccc(OCCCN3C(=O)C(=O)c4cc(F)ccc43)cc12`, the MIC came to 1 mg/L (≈ 1.98 µM).
